# Patent EP4775567A1, “IONIZABLE CATIONIC LIPID COMPOUNDS AS WELL AS PREPARATION METHOD THEREFOR AND USE THEREOF” (Scindy Pharmaceutical (Suzhou) Co., Ltd, priority 2023, dated 2025)
# Legend:
# HEK 293T cells = test: In vitro transfection efficiency of luciferase mRNA lipid nanoparticles (luciferase activity); assay type: cell-based; conditions: for HEK 293T Cell Luciferase Activity: 100 ng dose, 96-well plate, 24 h incubation, luciferase mRNA lipid nanoparticles
# Description: (§1) Luciferase mRNA was diluted in a 10-100 mM sodium citrate buffer solution at pH 4.0, with the concentration of the mRNA solution being 135 µg/ml. A mixed lipid ethanol solution was prepared at a molar ratio of ionizable cationic lipid compound (each exemplary compound) : DSPC: cholesterol : 2-[(polyethylene glycol)-2000]-N,N-ditetradecylacetamide (ALC-0159) of 50:10:38.5:1.5. The mRNA solution and the mixed lipid solution were mixed at a volume ratio of 3:1 in a nanodrug preparation device, followed by ultrafiltration to obtain luciferase mRNA lipid nanoparticles.
# HEK-293T cells were used to evaluate the in vitro transfection efficiency of lipid nanoparticle compositions prepared from each exemplary compound. HEK293T cells were routinely cultured in DMEM + 10% FBS medium to ensure the cells were in the logarithmic growth phase. One day before transfection, the cells were seeded into a 96-well culture plate at an appropriate cell density and grown overnight. At the time of transfection, the cell confluency needed to reach 70-90%. The lipid nanoparticle compositions prepared from each exemplary compound were diluted into 4 different dose concentrations with DMEM and added to the 96-well cell culture plate, resulting in final concentrations of 400 ng, 200 ng, 100 ng and 50 ng per well, respectively. luciferase plasmid transfected using Lipofectamine 2000 was used as the positive control (PC). After incubation for 24 h in a 5% CO2 incubator at 37°C, the substrate was added to the wells, and the luciferase activity was determined using a microplate reader. […] The luciferase activity of the luciferase mRNA lipid nanoparticles prepared from Compound 1005 in HEK293T cells is shown in Fig. 1.
# [1] = Zeta potential by electrophoretic light scattering; assay type: physicochemical; conditions: luciferase mRNA lipid nanoparticles prepared from the compound; 25°C
# Description: as §1
# (§2) • 1. Determination of particle size and polydispersity index (PDI): The average particle size and PDI of the nanoparticle sample solutions in the examples were determined by dynamic light scattering using Malvern ZetaSizer Nano ZS90. The measurement angle was 90°, the refractive index of the dispersant was 1.330, and the test temperature was 25°C. • 2. Zeta potential: The Zeta potential of the nanoparticle sample solutions in the examples was determined by electrophoretic light scattering (ELS) using Malvern ZetaSizer Nano ZS90. Refractive index of the dispersant: 1.330, Test temperature: 25°C. • 3. Encapsulation Rate: The Encapsulation Rate of luciferase mRNA in lipid nanoparticles was determined using a Quant-it Ribogreen RNA quantitation kit (ThermoFisher Scientific, UK) in accordance with the manufacturer's instructions.
# [2] = Particle size and polydispersity index (PDI) by dynamic light scattering; assay type: physicochemical; conditions: luciferase mRNA lipid nanoparticles prepared from the compound; 25°C
# Description: as §1, §2
# female Balb/c mice = test: In vivo transfection efficiency and safety of luciferase mRNA lipid nanoparticles (whole-body live imaging); conditions: tail vein injection, single dose 0.3 mpk, 6 h after administration
# Description: as §1
# 6-8 week-old female Balb/c mice were used to evaluate the in vivo transfection efficiency and safety of lipid nanoparticle compositions prepared from each exemplary compound. The lipid nanoparticles prepared from each exemplary compound were administered by tail vein injection at a single dose of 0.3 mpk. At specific time points after administration (e.g., 3 h, 6 h), live imaging of the animals was performed using a PerkinElmer small animal imaging system to determine the bioluminescent signal. The whole-body live imaging of mice at 3 h/6 h after intravenous administration of luciferase mRNA lipid nanoparticles prepared from Compound 1008 is shown in Fig. 2. […] Table 3 Summary of in vitro/in vivo Activity Evaluation of Lipid Nanoparticles Prepared from Compounds
# [3] = Apparent pKa of blank lipid nanoparticles by TNS fluorescence; assay type: physicochemical; conditions: compound:DSPC:cholesterol:ALC-0159 50:10:38.5:1.5, pH 2 to 11
# Description: The apparent pKa of lipid nanoparticles is correlated with the efficacy of lipid nanoparticles in delivering nucleic acids (see Jayaraman et al., Angewandte Chemie, International Edition (2012), 51(34), 8529-8533; Semple et al., Nature Biotechnology 28, 172-176 (2010)). The apparent pKa of nanoparticles prepared from different lipid compounds was determined using fluorescence based on 2-(p-toluidino)-6-naphthalenesulfonic acid (TNS). The fluorescent probe has no fluorescence in water but […] emits fluorescence when bound to lipid membranes. Blank lipid nanoparticles were prepared at a molar ratio of ionizable cationic lipid compound (each exemplary compound) : DSPC : cholesterol : 2-[(polyethylene glycol)-2000]-N,N-ditetradecylacetamide (ALC-0159) of 50:10:38.5:1.5. They were diluted in different pH buffer solutions having a pH ranging from 2 to 11. An aqueous TNS solution was added and mixed. Then, the mixtures were added to a 96-well plate (black bottom), respectively. Detection was performed with excitation wavelength at 325 nm and the emission wavelength at 435 nm, with top detection. Measurement was performed 10 times for each well, and the fluorescence intensity was recorded. A pH-fluorescence intensity curve was plotted to determine the apparent pKa.
# [4] = Encapsulation Rate of luciferase mRNA in lipid nanoparticles (Quant-it Ribogreen RNA kit); assay type: physicochemical; conditions: luciferase mRNA in lipid nanoparticles prepared from the compound
# Description: as §1, §2
Compound,HEK 293T Cell Luciferase Activity (HEK 293T cells),"fluorescence intensity of luciferase expressed in HEK 293T cells (HEK 293T cells; different doses (50-400 ng per well), Fig. 1)",Zeta Potential [1],Particle Size [2],Polydispersity Index (PDI) [2],Mouse Whole-Body Average Fluorescence Signal (female Balb/c mice),Apparent pKa [3],Encapsulation Rate [4]
CCCCCCCCCCCCCCCC(CC)C(=O)OCC(COC(=O)C(CC)CCCCCCCCCCCCCCC)(COC(=O)C(CC)CCCCCCCCCCCCCCC)NCCC(=O)NCCN(C)C (stereo not shown) [Compound 1005],1.01×10^8 RLU,> 10^7 RLU,-0.105 mV,55.44 nm,0.076,1.21×10^6 p/s/cm^2/sr,6.10,91.7%
CCCCCCCCCCCC(CCCCCC)C(=O)OCC(COC(=O)C(CCCCCC)CCCCCCCCCCC)(COC(=O)C(CCCCCC)CCCCCCCCCCC)NCCC(=O)NCCN(C)C (stereo not shown) [Compound 1007],1.60×10^5 RLU,–,-4.98 mV,85.78 nm,0.068,1.34×10^6 p/s/cm^2/sr,5.13,95.9%
CCCCCCCCCC(CCCCCCCC)C(=O)OCC(COC(=O)C(CCCCCCCC)CCCCCCCCC)(COC(=O)C(CCCCCCCC)CCCCCCCCC)NCCC(=O)NCCN(C)C (stereo not shown) [Compound 1008],1.86×10^6 RLU,–,-6.06 mV,73.49 nm,0.019,7.66×10^5 p/s/cm^2/sr,6.14,95.1%
CCCCCCCCCCCCCC(CC)C(=O)OCC(COC(=O)C(CC)CCCCCCCCCCCCC)(COC(=O)C(CC)CCCCCCCCCCCCC)NCCC(=O)NCCN(C)C (stereo not shown) [Compound 1009],6.15×10^7 RLU,–,2.60 mV,67.63 nm,0.126,5.99×10^4 p/s/cm^2/sr,5.23,92.7%
CCCCCCCCCCCCCCCC(CC)C(=O)OCC(COC(=O)C(CC)CCCCCCCCCCCCCCC)(COC(=O)C(CC)CCCCCCCCCCCCCCC)NCCC(=O)NCCN(CC)CC (stereo not shown) [Compound 1011],8.22×10^7 RLU,–,2.31 mV,60.38 nm,0.193,1.29×10^5 p/s/cm^2/sr,6.30,91.8%
CCCCCCCCCCCCCCCC(CC)C(=O)OCC(COC(=O)C(CC)CCCCCCCCCCCCCCC)(COC(=O)C(CC)CCCCCCCCCCCCCCC)NCCC(=O)NCCN(CCC)CCC (stereo not shown) [Compound 1012],6.61×10^5 RLU,–,0.811 mV,80.07 nm,0.051,2.02×10^5 p/s/cm^2/sr,6.05,87.4%
CCCCCCCCCCCCCCCC(CC)C(=O)OCC(COC(=O)C(CC)CCCCCCCCCCCCCCC)(COC(=O)C(CC)CCCCCCCCCCCCCCC)NCCC(=O)NCCN(CCCC)CCCC (stereo not shown) [Compound 1013],9.87×10^4 RLU,–,-2.23 mV,82.41 nm,0.123,1.69×10^4 p/s/cm^2/sr,5.75,90.7%
CCCCCCCCCCCCCCCC(CC)C(=O)OCC(COC(=O)C(CC)CCCCCCCCCCCCCCC)(COC(=O)C(CC)CCCCCCCCCCCCCCC)NCCC(=O)OCCN(C)C (stereo not shown) [Compound 1029],8.23×10^4 RLU,–,-3.71 mV,77.94 nm,0.057,3.27×10^4 p/s/cm^2/sr,5.41,90.6%
CCCCCCCCCC(CCCCCCCC)C(=O)OCC(COC(=O)C(CCCCCCCC)CCCCCCCCC)(COC(=O)C(CCCCCCCC)CCCCCCCCC)NCCOCCN(C)C (stereo not shown) [Compound 1059],1.32×10^4 RLU,–,-10.0 mV,72.71 nm,0.067,4.94×10^5 p/s/cm^2/sr,5.18,93.0%
CCCCCCCCCCCCCCCC(CC)C(=O)OCC(COC(=O)C(CC)CCCCCCCCCCCCCCC)(COC(=O)C(CC)CCCCCCCCCCCCCCC)NC(=O)CCCCN(C)CCCCO (stereo not shown) [Compound 1113],3.43×10^4 RLU,–,4.57 mV,58.00 nm,0.082,3.56×10^7 p/s/cm^2/sr,5.91,100.3%
CCCCCCCCCC(CCCCCCCC)C(=O)OCC(COC(=O)C(CCCCCCCC)CCCCCCCCC)(COC(=O)C(CCCCCCCC)CCCCCCCCC)NCCC(=O)NCCN(C)CCCCO (stereo not shown) [Compound 1118],1.48×10^4 RLU,–,-3.96 mV,108.1 nm,0.051,1.77×10^8 p/s/cm^2/sr,5.11,95.9%
CCCCCCCCCC(CCCCCCCC)C(=O)OCC(COC(=O)C(CCCCCCCC)CCCCCCCCC)(COC(=O)C(CCCCCCCC)CCCCCCCCC)NCCCCCCN(C)CCCCO (stereo not shown) [Compound 1120],2.35×10^4 RLU,–,-6.05 mV,98.18 nm,0.049,3.52×10^8 p/s/cm^2/sr,6.14,97.2%
